This is an account of results in BindingDB's records for doi:10.7270/Q2Q52N1X (Vanderbilt Screening Center for GPCRs, Ion Channels and …, 2009).

The EC50 is the concentration that produces a half-maximal response. Higher therefore signals a need for much substance.

The target of one assay is T1, Solute carrier family 12 member 5 (Homo sapiens, UniProt Q9H2X9).
T1 sequence (Q9H2X9 whole entry): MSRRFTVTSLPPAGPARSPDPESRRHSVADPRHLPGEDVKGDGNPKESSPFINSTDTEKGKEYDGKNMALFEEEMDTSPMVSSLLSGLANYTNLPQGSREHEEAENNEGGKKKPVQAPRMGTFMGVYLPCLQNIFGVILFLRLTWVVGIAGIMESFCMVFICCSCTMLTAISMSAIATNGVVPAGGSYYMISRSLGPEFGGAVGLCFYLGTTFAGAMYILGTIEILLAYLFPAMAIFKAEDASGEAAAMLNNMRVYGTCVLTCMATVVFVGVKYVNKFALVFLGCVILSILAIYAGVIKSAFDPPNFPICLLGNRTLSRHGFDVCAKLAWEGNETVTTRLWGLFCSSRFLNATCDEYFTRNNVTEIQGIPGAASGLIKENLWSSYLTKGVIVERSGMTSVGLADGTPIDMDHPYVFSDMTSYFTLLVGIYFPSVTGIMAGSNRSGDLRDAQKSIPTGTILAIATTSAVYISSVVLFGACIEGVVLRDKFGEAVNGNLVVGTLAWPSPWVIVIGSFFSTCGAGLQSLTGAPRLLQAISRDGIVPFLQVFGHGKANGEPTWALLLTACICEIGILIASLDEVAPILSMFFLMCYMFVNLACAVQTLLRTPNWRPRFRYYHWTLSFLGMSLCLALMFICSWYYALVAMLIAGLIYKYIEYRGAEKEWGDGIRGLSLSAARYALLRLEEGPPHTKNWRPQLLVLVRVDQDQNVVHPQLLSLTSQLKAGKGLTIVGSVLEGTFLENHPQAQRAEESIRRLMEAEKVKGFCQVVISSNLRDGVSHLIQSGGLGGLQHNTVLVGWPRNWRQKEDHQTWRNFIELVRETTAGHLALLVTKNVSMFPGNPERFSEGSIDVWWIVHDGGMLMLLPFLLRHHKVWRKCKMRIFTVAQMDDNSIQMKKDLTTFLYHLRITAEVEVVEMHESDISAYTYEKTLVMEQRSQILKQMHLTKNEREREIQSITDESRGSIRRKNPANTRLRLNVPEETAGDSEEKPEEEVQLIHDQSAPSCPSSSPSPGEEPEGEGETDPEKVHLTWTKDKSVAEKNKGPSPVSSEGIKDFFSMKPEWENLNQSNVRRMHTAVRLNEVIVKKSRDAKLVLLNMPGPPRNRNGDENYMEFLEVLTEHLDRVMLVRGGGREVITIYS
As to the kind of experiment: concentration-response of KCC2 transport modulators – cell-based, HEK293 KCC2, FluoZin-2 fluorescence, dose response (AID 1736).
Details: not given
`CCOc1cc(Br)ccc1S(=O)(=O)NCc1ccccc1` [4-bromanyl-2-ethoxy-N-(phenylmethyl)benzenesulfonamide] registered an EC50 of 1.36 µM. In other words, the single-digit micromolar range.
On the same count and under the same terms, next, `COC(=O)Cc1[nH]n(-c2nc3ccccc3s2)c(=O)c1C(C)=Nc1ccc(Cl)cc1` [methyl 2-[(4E)-1-(1,3-benzothiazol-2-yl)-4-[1-[(4-chlorophenyl)amino]ethylidene]-5-oxidanylidene-pyrazol-3-yl]ethanoate]: 77.3 µM; `CN1C(=O)/C(=C/c2ccccc2OCc2ccccc2)NC1=S` [(5Z)-3-methyl-5-[(2-phenylmethoxyphenyl)methylidene]-2-sulfanylidene-4-imidazolidinone]: 7.64 µM.
Compound `O=C(OCc1ccccn1)c1ccc(COc2ccccc2Cl)o1` [5-(2-Chloro-phenoxymethyl)-furan-2-carboxylic acid pyridin-2-ylmethyl ester] returned an EC50 of 6.49 µM.
On the same count and under the same terms, next, `COc1cccc(CNC(=O)CSc2ccc(-c3cccs3)nn2)c1` [MLS000621194]: 34.2 µM.
Still for that read-out and setting: for `CC(C)(CN=C(S)NCCc1ccccc1)CN=C(S)NCCc1ccccc1` [1-[2,2-dimethyl-3-(2-phenylethylcarbamothioylamino)propyl]-3-(2-phenylethyl)thiourea] the value was 0.929 µM; for `CC(=NNC(=O)c1ccc(Br)cc1)c1ccccc1` [MLS000558629], 2.67 µM.
Same read-out and setting: next, `Cc1cc([N+](=O)[O-])ccc1NCc1ccccc1` [2-methyl-4-nitro-N-(phenylmethyl)aniline]: 31.3 µM; `COc1ccc(N(CC(=O)Nc2cccc(C)c2C)S(=O)(=O)c2c(C)n[nH]c2C)cc1` [N-(2,3-dimethylphenyl)-2-[(3,5-dimethyl-1H-pyrazol-4-yl)sulfonyl-(4-methoxyphenyl)amino]ethanamide]: 15.7 µM; `CC1CCCCN1C(=O)CSc1nnc(-c2c[nH]c3ccccc23)o1` (centres undefined): 10.7 µM.
In turn, `Cc1cc(NC(=O)CSc2ccc(-c3ccc(F)cc3)nn2)no1` [2-[6-(4-fluorophenyl)pyridazin-3-yl]sulfanyl-N-(5-methyl-1,2-oxazol-3-yl)acetamide] yielded an EC50 of 0.182 µM.
Still for that read-out and setting: for `O=c1c2ccccc2c(-c2nnc(S)o2)nn1Cc1ccccc1` [2-(phenylmethyl)-4-(2-sulfanylidene-3H-1,3,4-oxadiazol-5-yl)-1-phthalazinone] the value was 3.27 µM; for `COc1cc(OC)c(C2=NOC(C(=O)N3CCc4ccccc4C3)C2)cc1Cl` (centres undefined) [2-{[3-(5-chloro-2,4-dimethoxyphenyl)-4,5-dihydro-5-isoxazolyl]carbonyl}-1,2,3,4-tetrahydroisoquinoline], 8.15 µM.
On the same count and under the same terms, next, `CC1Cc2ccccc2N1C(=O)c1ccc(N2CCCCC2)c([N+](=O)[O-])c1` (centres undefined) [(2-methyl-2,3-dihydroindol-1-yl)-(3-nitro-4-piperidin-1-yl-phenyl)methanone]: 1.59 µM.
In the case of `Cn1c(CSc2nc3ccccc3s2)nc2ccccc21` [2-(1-Methyl-1H-benzoimidazol-2-ylmethylsulfanyl)-benzothiazole], the EC50 came to 12.4 µM.
The compound `CCC(c1nnc(SCc2nc3ccccc3s2)n1Cc1ccccc1)N(C)C` (centres undefined) [1-[5-(1,3-benzothiazol-2-ylmethylsulfanyl)-4-(phenylmethyl)-1,2,4-triazol-3-yl]-N,N-dimethyl-propan-1-amine] registered an EC50 of 6.62 µM.
In the case of `O=C(O)CCn1c(SCc2cccc3ccccc23)nc2ccccc21` [3-[2-(1-naphthalenylmethylthio)-1-benzimidazolyl]propanoic acid], the midpoint of the response, the EC50, lay at 0.619 µM. This EC50 is about 11-fold lower than that of the compound before.
Same read-out and setting: for `O=C(Nc1cccnc1)c1ccc(COc2ccccc2Br)o1` [5-[(2-bromanylphenoxy)methyl]-N-pyridin-3-yl-furan-2-carboxamide] the value was 5.19 µM; for `O=c1c(-c2cnn(-c3ccccc3)c2)coc2cc(O)ccc12` [7-hydroxy-3-(1-phenyl-1H-pyrazol-4-yl)-4H-chromen-4-one], 20.1 µM.
Still for that read-out and setting: next, `O=C(Cn1cnc2c(nnn2-c2ccccc2)c1=O)NCCc1ccccc1` [2-(7-keto-3-phenyl-triazolo[4,5-d]pyrimidin-6-yl)-N-phenethyl-acetamide]: 1.17 µM; `Sc1nnc(C2(c3ccccc3)CCCC2)o1` [5-(1-phenylcyclopentyl)-3H-1,3,4-oxadiazole-2-thione]: 1.54 µM.
On the same count and under the same terms, for `CC1Cc2ccccc2N1C(=O)CSc1nnc(CNc2ccccc2)o1` (centres undefined) [1-(2-Methyl-2,3-dihydro-indol-1-yl)-2-(5-phenylaminomethyl-[1,3,4]oxadiazol-2-ylsulfanyl)-ethanone] the value was 18.5 µM; for `CCc1ccc(Nc2nnc(SCC(=O)Nc3sccc3C(N)=O)s2)cc1` [2-[2-[[5-[(4-ethylphenyl)amino]-1,3,4-thiadiazol-2-yl]sulfanyl]ethanoylamino]thiophene-3-carboxamide], 6.01 µM; for `CC(C)(C)NC(=O)C(c1ccncc1)N(Cc1ccco1)C(=O)c1ccc(-c2ccccc2)[nH]1` (centres undefined) [N-[2-(tert-butylamino)-2-oxo-1-pyridin-4-ylethyl]-N-(furan-2-ylmethyl)-5-phenyl-1H-pyrrole-2-carboxamide], 26.6 µM.
Turning to `N#Cc1ccccc1NC(=O)CSc1nccn1CCc1ccccc1` [MLS000051858], the EC50 stood at 12.5 µM. Compared with the last compound, the EC50 is about 2.1-fold lower.
Same read-out and setting: for `Cc1ccc(/C=C2\SC(=S)N(c3c(C)n(C)n(-c4ccccc4)c3=O)C2=O)cc1` [3-(1,5-dimethyl-3-oxo-2-phenyl-2,3-dihydro-1H-pyrazol-4-yl)-5-(4-methylbenzylidene)-2-thioxo-1,3-thiazolidin-4-one] the value was 1.18 µM.
The same measure, in the same setting: next, `CN(C)S(=O)(=O)c1cccc(NC(=O)c2cc3c(cc2Cl)N2CCCCC=C2NS3(=O)=O)c1` [2-chloranyl-N-[3-(dimethylsulfamoyl)phenyl]-5,5-bis(oxidanylidene)-8,9,10,11-tetrahydro-7H-azepino[2,1-c][1,2,4]benzothiadiazine-3-carboxamide]: 0.0676 µM; `COc1ccc(-c2nnc(S/C(=C/c3ccc(Cl)cc3)C(=O)O)o2)cc1` [(E)-3-(4-chlorophenyl)-2-[[5-(4-methoxyphenyl)-1,3,4-oxadiazol-2-yl]sulfanyl]prop-2-enoic acid]: 0.489 µM.
Still for that read-out and setting: next, `CC(C)N1C(=O)S/C(=C/c2ccccc2OCc2ccc(C(=O)O)cc2)C1=O`: 218 µM; `O=C(CSc1ccc(-c2ccccc2)nn1)Nc1ccc2c(c1)OCCO2` [MLS000724887]: 31 µM; `COc1cc(C(=S)N2CCOCC2)cc(OC)c1OC(=O)Cc1ccc(F)cc1` [(2,6-dimethoxy-4-morpholin-4-ylcarbothioyl-phenyl) 2-(4-fluorophenyl)ethanoate]: 3.98 µM.

Still in this assay, the particulars now being: inactive by the depositor's call.
As to `CC1=NN(C(=O)c2ccc(Br)cc2)C(O)(C(F)(F)OC(F)(F)F)C1` (centres undefined) [[5-[bis(fluoranyl)-(trifluoromethyloxy)methyl]-3-methyl-5-oxidanyl-4H-pyrazol-1-yl]-(4-bromophenyl)methanone], the EC50 was 6.18 µM. This lies in the single-digit micromolar range.
On the same count and under the same terms, for `CN(C)S(=O)(=O)N(CC(=O)NCCSCc1ccccc1)c1ccccc1` [2-[N-(dimethylsulfamoyl)anilino]-N-[2-(phenylmethylthio)ethyl]acetamide] the value was 18.7 µM; for `COc1ccc(S(=O)(=O)N(CCC(=O)O)Cc2ccccc2)cc1` [3-[(4-methoxyphenyl)sulfonyl-(phenylmethyl)amino]propanoic acid], 6.36 µM.
